Laboratory results reported in PubChem BioAssay AID1963826 (Molecular Pharmacology Branch, DTP, NCI, 2024).

System: 926638-142-R-J1-PDC complex spheroid viability
Assay: Anticancer human tumor 926638-142-R-J1-PDC patient-derived endometrial carcinoma cell line growth inhibition [POLQ]
Details: for IC50: curve of first compound; for viability, T/C: stronger effect = lower value
Method in brief: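 Complex spheroid viability model combining PDC tumour cells with endothelial (HUVEC) and MSC stromal cells. Novobiocin, ART-558 or RP6685 were tested singly and in combination with standard and investigational anticancer drugs. Each was titrated in half-log steps from near clinical Cmax, or from 10 microM where Cmax was unknown.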

[1] = second compound 0.0316 µM, first compound 0.00316 µM
[2] = second compound 0.0316 µM, first compound 0.01 µM
[3] = second compound 0.0316 µM, first compound 0.0316 µM
[4] = second compound 0.0316 µM, first compound 0.1 µM
[5] = second compound 0.0316 µM, first compound 0.316 µM
[6] = second compound 0.0316 µM, first compound 1 µM
[7] = second compound 0.1 µM, first compound 0.00316 µM
[8] = second compound 0.1 µM, first compound 0.01 µM
[9] = second compound 0.1 µM, first compound 0.0316 µM
[10] = second compound 0.1 µM, first compound 0.1 µM
[11] = second compound 0.1 µM, first compound 0.316 µM
[12] = second compound 0.1 µM, first compound 1 µM
[13] = second compound 0.316 µM, first compound 0.00316 µM
[14] = second compound 0.316 µM, first compound 0.01 µM
[15] = second compound 0.316 µM, first compound 0.0316 µM
[16] = second compound 0.316 µM, first compound 0.1 µM
[17] = second compound 0.316 µM, first compound 0.316 µM
[18] = second compound 0.316 µM, first compound 1 µM
[19] = second compound 1 µM, first compound 0.00316 µM
[20] = second compound 1 µM, first compound 0.01 µM
[21] = second compound 1 µM, first compound 0.0316 µM
[22] = second compound 1 µM, first compound 0.1 µM
[23] = second compound 1 µM, first compound 0.316 µM
[24] = second compound 1 µM, first compound 1 µM
[25] = second compound 3.16 µM, first compound 0.00316 µM
[26] = second compound 3.16 µM, first compound 0.01 µM
[27] = second compound 3.16 µM, first compound 0.0316 µM
[28] = second compound 3.16 µM, first compound 0.1 µM
[29] = second compound 3.16 µM, first compound 0.316 µM
[30] = second compound 3.16 µM, first compound 1 µM
[31] = second compound 10 µM, first compound 0.00316 µM
[32] = second compound 10 µM, first compound 0.01 µM
[33] = second compound 10 µM, first compound 0.0316 µM
[34] = second compound 10 µM, first compound 0.1 µM
[35] = second compound 10 µM, first compound 0.316 µM
[36] = second compound 10 µM, first compound 1 µM
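Note: spheroids exposed to drugs for one week before readout.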
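Throughout, for viability, T/C: percent viability relative to DMSO vehicle control wells set as 100%.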

C=CCn1c(=O)c2cnc(Nc3ccc(N4CCN(C)CC4)cc3)nc2n1-c1cccc(C(C)(C)O)n1 + Nc1ccc(C#CCN(C(=O)Cc2ncc(C(F)(F)F)cc2C(F)(F)F)c2ccc(F)cc2)nn1
IC50 (second compound 0.0316 µM): 584 nM
IC50 (second compound 0.1 µM): 626 nM
IC50 (second compound 0.316 µM): 670 nM
IC50 (second compound 1 µM): 457 nM
IC50 (second compound 3.16 µM): 618 nM
IC50 (second compound 10 µM): 263 nM
viability, T/C [1]: 100%
viability, T/C [2]: 97.9%
viability, T/C [3]: 80.7%
viability, T/C [4]: 63%
viability, T/C [5]: 57.5%
viability, T/C [6]: 44.9%
viability, T/C [7]: 122%
viability, T/C [8]: 90.6%
viability, T/C [9]: 92.3%
viability, T/C [10]: 81.3%
viability, T/C [11]: 56.1%
viability, T/C [12]: 43.3%
viability, T/C [13]: 109%
viability, T/C [14]: 95.7%
viability, T/C [15]: 95%
viability, T/C [16]: 80.5%
viability, T/C [17]: 64.6%
viability, T/C [18]: 42%
viability, T/C [19]: 116%
viability, T/C [20]: 94.4%
viability, T/C [21]: 80.5%
viability, T/C [22]: 72.7%
viability, T/C [23]: 57.1%
viability, T/C [24]: 37.6%
viability, T/C [25]: 103%
viability, T/C [26]: 88.9%
viability, T/C [27]: 80%
viability, T/C [28]: 84.4%
viability, T/C [29]: 60.2%
viability, T/C [30]: 40.6%
viability, T/C [31]: 76.5%
viability, T/C [32]: 95.2%
viability, T/C [33]: 88.9%
viability, T/C [34]: 67.3%
viability, T/C [35]: 49.1%
viability, T/C [36]: 42.6%

CCCS(=O)(=O)Nc1ccc(F)c(C(=O)c2c[nH]c3ncc(-c4ccc(Cl)cc4)cc23)c1F + Nc1ccc(C#CCN(C(=O)Cc2ncc(C(F)(F)F)cc2C(F)(F)F)c2ccc(F)cc2)nn1
IC50 (second compound 0.0316 µM): 7880 nM
IC50 (second compound 0.1 µM): > 10000 nM
IC50 (second compound 0.316 µM): 8900 nM
IC50 (second compound 1 µM): 8580 nM
IC50 (second compound 3.16 µM): 8430 nM
IC50 (second compound 10 µM): 6870 nM
viability, T/C [3]: 99.5%
viability, T/C [4]: 90.5%
viability, T/C [5]: 103%
viability, T/C [6]: 85.7%
viability, T/C (second compound 0.0316 µM, first compound 3.16 µM): 80%
viability, T/C (second compound 0.0316 µM, first compound 10 µM): 42.2%
viability, T/C [9]: 111%
viability, T/C [10]: 85.7%
viability, T/C [11]: 103%
viability, T/C [12]: 81.8%
viability, T/C (second compound 0.1 µM, first compound 3.16 µM): 94.5%
viability, T/C (second compound 0.1 µM, first compound 10 µM): 50.9%
viability, T/C [15]: 90.4%
viability, T/C [16]: 97.9%
viability, T/C [17]: 100%
viability, T/C [18]: 99.9%
viability, T/C (second compound 0.316 µM, first compound 3.16 µM): 87.1%
viability, T/C (second compound 0.316 µM, first compound 10 µM): 45.3%
viability, T/C [21]: 105%
viability, T/C [22]: 92.1%
viability, T/C [23]: 93.3%
viability, T/C [24]: 92.8%
viability, T/C (second compound 1 µM, first compound 3.16 µM): 80.4%
viability, T/C (second compound 1 µM, first compound 10 µM): 44.8%
viability, T/C [27]: 89.8%
viability, T/C [28]: 83.6%
viability, T/C [29]: 90.5%
viability, T/C [30]: 87.8%
viability, T/C (second compound 3.16 µM, first compound 3.16 µM): 88.6%
viability, T/C (second compound 3.16 µM, first compound 10 µM): 43.4%
viability, T/C [33]: 87.9%
viability, T/C [34]: 93.5%
viability, T/C [35]: 91.3%
viability, T/C [36]: 82.6%
viability, T/C (second compound 10 µM, first compound 3.16 µM): 71.2%
viability, T/C (second compound 10 µM, first compound 10 µM): 40.1%

CCc1c2c(nc3ccc(O)cc13)-c1cc3c(c(=O)n1C2)COC(=O)[C@]3(O)CC + Nc1ccc(C#CCN(C(=O)Cc2ncc(C(F)(F)F)cc2C(F)(F)F)c2ccc(F)cc2)nn1
IC50 (second compound 0.0316 µM): 8.14 nM
IC50 (second compound 0.1 µM): 10.3 nM
IC50 (second compound 0.316 µM): 13.7 nM
IC50 (second compound 1 µM): 11.6 nM
IC50 (second compound 3.16 µM): 7.09 nM
IC50 (second compound 10 µM): 8.56 nM
viability, T/C [1]: 54.4%
viability, T/C [2]: 52.5%
viability, T/C [3]: 32.8%
viability, T/C [4]: 27.6%
viability, T/C [5]: 15.2%
viability, T/C [6]: 11.2%
viability, T/C [7]: 67.3%
viability, T/C [8]: 49.8%
viability, T/C [9]: 36.5%
viability, T/C [10]: 24.9%
viability, T/C [11]: 17.3%
viability, T/C [12]: 10.2%
viability, T/C [13]: 69.9%
viability, T/C [14]: 56.9%
viability, T/C [15]: 33.7%
viability, T/C [16]: 24.6%
viability, T/C [17]: 14.9%
viability, T/C [18]: 10.4%
viability, T/C [19]: 60%
viability, T/C [20]: 53.9%
viability, T/C [21]: 35.4%
viability, T/C [22]: 24.6%
viability, T/C [23]: 15.4%
viability, T/C [24]: 10.5%
viability, T/C [25]: 60.3%
viability, T/C [26]: 46.7%
viability, T/C [27]: 30.6%
viability, T/C [28]: 20.6%
viability, T/C [29]: 17.6%
viability, T/C [30]: 7.92%
viability, T/C [31]: 64.2%
viability, T/C [32]: 47.4%
viability, T/C [33]: 34.5%
viability, T/C [34]: 23.1%
viability, T/C [35]: 15.3%
viability, T/C [36]: 10.2%
